Experiments:
[1] = molecular target: T1, Aldehyde dehydrogenase, mitochondrial (Homo sapiens, UniProt P05091); test: Inhibition of human ALDH2 using propionaldehyde as substrate preincubated for 2 mins followed by substrate addition by spectrophotometry in presence of NAD+
T1 sequence (P05091 whole entry): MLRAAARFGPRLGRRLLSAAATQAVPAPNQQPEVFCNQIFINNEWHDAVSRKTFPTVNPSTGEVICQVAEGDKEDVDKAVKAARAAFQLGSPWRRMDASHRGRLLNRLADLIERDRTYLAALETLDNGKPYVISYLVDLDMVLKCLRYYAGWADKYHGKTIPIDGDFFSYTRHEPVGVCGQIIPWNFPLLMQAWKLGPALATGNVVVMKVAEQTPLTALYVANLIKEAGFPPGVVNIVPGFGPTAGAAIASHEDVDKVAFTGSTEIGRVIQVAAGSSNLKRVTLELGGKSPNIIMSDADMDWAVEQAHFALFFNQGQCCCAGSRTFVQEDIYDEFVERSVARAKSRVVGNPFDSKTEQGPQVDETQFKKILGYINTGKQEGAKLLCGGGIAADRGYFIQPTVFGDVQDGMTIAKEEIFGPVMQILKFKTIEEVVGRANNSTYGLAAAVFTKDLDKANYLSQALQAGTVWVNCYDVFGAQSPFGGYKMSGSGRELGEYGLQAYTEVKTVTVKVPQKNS

[2] = molecular target: T2, Aldehyde dehydrogenase 1A1 (Homo sapiens, UniProt P00352); test: Inhibition of human ALDH1A1 using propionaldehyde as substrate preincubated for 2 mins followed by substrate addition by spectrophotometry in presence of NAD+
T2 sequence (P00352 whole entry): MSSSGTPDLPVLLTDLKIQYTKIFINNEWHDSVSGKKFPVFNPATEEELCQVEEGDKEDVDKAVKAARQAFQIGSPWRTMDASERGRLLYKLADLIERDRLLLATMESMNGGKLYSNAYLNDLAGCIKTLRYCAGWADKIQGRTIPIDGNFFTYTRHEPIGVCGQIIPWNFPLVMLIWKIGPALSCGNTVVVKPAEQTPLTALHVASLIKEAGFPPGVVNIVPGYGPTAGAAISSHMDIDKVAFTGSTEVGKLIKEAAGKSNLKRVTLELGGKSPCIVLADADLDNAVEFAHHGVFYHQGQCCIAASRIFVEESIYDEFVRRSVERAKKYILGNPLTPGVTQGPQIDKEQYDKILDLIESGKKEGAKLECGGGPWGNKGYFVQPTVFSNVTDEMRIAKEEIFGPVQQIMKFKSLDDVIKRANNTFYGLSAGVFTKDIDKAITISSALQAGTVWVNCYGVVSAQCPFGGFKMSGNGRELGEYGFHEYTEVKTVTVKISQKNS

[3] = molecular target: T3, Aldehyde dehydrogenase, dimeric NADP-preferring (Homo sapiens, UniProt P30838); test: Inhibition of full length human ALDH3A1 expressed in Escherichia coli BL21 (DE3) using benzaldehyde as substrate preincubated for 2 mins followed by substrate addition by spectrophotometry in presence of NADP+
T3 sequence (P30838 whole entry): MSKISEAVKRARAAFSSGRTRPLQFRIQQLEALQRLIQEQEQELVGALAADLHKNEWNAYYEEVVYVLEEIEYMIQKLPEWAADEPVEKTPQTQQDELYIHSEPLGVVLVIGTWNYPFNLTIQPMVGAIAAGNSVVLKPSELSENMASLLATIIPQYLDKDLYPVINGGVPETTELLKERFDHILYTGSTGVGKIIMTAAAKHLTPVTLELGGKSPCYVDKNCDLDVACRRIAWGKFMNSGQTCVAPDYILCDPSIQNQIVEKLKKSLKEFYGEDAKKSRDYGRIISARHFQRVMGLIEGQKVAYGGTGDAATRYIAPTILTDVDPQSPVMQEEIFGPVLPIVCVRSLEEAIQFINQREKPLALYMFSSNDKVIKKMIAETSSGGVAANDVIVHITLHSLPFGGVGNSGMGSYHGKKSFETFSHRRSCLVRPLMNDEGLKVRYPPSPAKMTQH

[4] = molecular target: T2, Aldehyde dehydrogenase 1A1; test: Competitive inhibition of human ALDH1A1 using propionaldehyde as substrate by Lineweaver-Burk plot analysis
[5] = molecular target: T3, Aldehyde dehydrogenase, dimeric NADP-preferring; test: Inhibition of human ALDH3A1 by Lineweaver-Burk plot analysis in presence of NADP+
[6] = molecular target: T1, Aldehyde dehydrogenase, mitochondrial; test: Inhibition of human ALDH2 using propionaldehyde as substrate by Lineweaver-Burk plot analysis
[7] = molecular target: T2, Aldehyde dehydrogenase 1A1; test: Noncompetitive/mixed type inhibition of human ALDH1A1 by Lineweaver-Burk plot analysis in presence of NAD+
[8] = molecular target: T1, Aldehyde dehydrogenase, mitochondrial; test: Inhibition of human ALDH2 by Lineweaver-Burk plot analysis in presence of NAD+
[9] = molecular target: T3, Aldehyde dehydrogenase, dimeric NADP-preferring; test: Inhibition of human ALDH3A1 using benzaldehyde as substrate by Lineweaver-Burk plot analysis

| IC50 [1] [nM] | IC50 [2] [nM] | IC50 [3] [nM] | SMILES | also measured |
| --- | --- | --- | --- | --- |
| 410 | 90 | – | O=C1C(=O)N(CCc2ccccc2)c2ccc(Cl)cc21 | – |
| – | 19000 | 1600 | O=C1C(=O)N(CN2CCN(CN3C(=O)C(=O)c4ccccc43)C2)c2ccccc21 | – |
| > 100000 | 12000 | 300 | O=C1C(=O)N(CN2CCN(Cc3ccc4c(c3)OCO4)CC2)c2ccccc21 | – |
| 2400 | 720 | 360 | Cc1cc(Br)c2c(c1)C(=O)C(=O)N2 | Ki [4]: 900 nM; Ki [5]: 500 nM; Ki [6]: 1000 nM; Ki [7]: 290 nM; Ki [8]: 2200 nM; Ki [9]: 380 nM |
| – | > 100000 | 1700 | O=C1C(=O)N(CN2CCN(Cc3cccc(Cl)c3)CC2)c2ccccc21 | – |
| > 100000 | 20000 | 1300 | O=C1C(=O)N(CN2CCOCC2)c2ccccc21 | – |
| – | 4000 | 1800 | O=C1C(=O)N(CN2CCN(Cc3ccccc3F)CC2)c2ccccc21 | – |
| – | 35000 | 1900 | O=C1C(=O)N(CN2CCN(Cc3cccc(F)c3)CC2)c2ccccc21 | – |
| > 100000 | 35000 | 1600 | CN1CCN(CN2C(=O)C(=O)c3ccccc32)CC1 | – |
| – | 34000 | 1200 | COc1cccc(CN2CCN(CN3C(=O)C(=O)c4ccccc43)CC2)c1 | – |

The remaining lines, values behind:

| SMILES | IC50 [1] [nM] | IC50 [2] [nM] | IC50 [3] [nM] | also measured |
| --- | --- | --- | --- | --- |
| O=C1C(=O)N(C/C=C/c2ccccc2)c2ccc(Cl)cc21 | – | 570 | – | – |
| O=C1C(=O)N(Cc2ccccc2)c2ccc(Br)cc21 | 2100 | 580 | – | – |
| O=C1C(=O)N(CCc2ccccc2)c2ccc(Br)cc21 | 50 | 2000 | 18000 | – |
| O=C1C(=O)N(C/C=C/c2ccccc2)c2ccccc21 | > 100000 | 70 | 310 | – |
| O=C1C(=O)N(CCc2ccccc2)c2ccccc21 | 3500 | 70 | – | – |
| O=C1C(=O)N(CN2CCN(Cc3ccc(F)cc3)CC2)c2ccccc21 | – | > 100000 | 1500 | – |
| O=C1C(=O)N(CN2CCN(Cc3ccccc3)CC2)c2ccccc21 | > 100000 | 50000 | 930 | – |
| O=C1C(=O)N(CN2CCN(Cc3ccc4c(c3)OCO4)CC2)c2ccc(Br)cc21 | > 100000 | 15000 | 73000 | – |
| O=C1C(=O)N(CCCc2ccccc2)c2ccccc21 | 1200 | 50 | 460 | – |
| O=C1C(=O)N(Cc2ccccc2)c2ccc(Cl)cc21 | 2100 | 60 | – | – |
| CCCCCN1C(=O)C(=O)c2ccccc21 | 1700 | 40 | 420 | – |
